Activity calls are given as the source filed them. No cut-off for these calls is given here.
What was measured:
Mus musculus [1] = organism: Mus musculus; test: Activation of AMPK in mouse 3T3L1 adipocytes assessed as increase in 2-NBDG uptake at 10 uM after 90 mins by fluorescence assay; assay type: cell-based
C2C12 [2] = test: Induction of AMPK alpha phosphorylation at Thr172 residue in mouse C2C12 cells at 10 uM after 2 hrs by Western blot analysis; assay type: cell-based
[3] = Effect on total AMPK expression in mouse C2C12 cells at 10 uM after 2 hrs by Western blot analysis; assay type: ADME, cell-based; settings: c2c12, 2 h
Mus musculus [4] = organism: Mus musculus; test: Activation of AMPK in mouse 3T3L1 adipocytes assessed as increase in 2-NBDG uptake at 10 uM after 90 mins by fluorescence microscopy; assay type: cell-based
Mus musculus [5] = organism: Mus musculus; test: Cytotoxicity against mouse C2C12 cells assessed as decrease in cell viability at 10 uM after 2 to 24 hrs by MTT assay; assay type: toxicity, cell-based; settings: c2c12, 10 µM
C2C12 [6] = test: Activation of AMPK in mouse C2C12 cells assessed as increase in ACC phosphorylation at Ser79 residues at 10 uM after 2 hrs by Western blot analysis; assay type: cell-based
Mus musculus [7] = organism: Mus musculus; test: Cytotoxicity against mouse 3T3L1 adipocytes assessed as decrease in cell viability at 10 uM after 2 to 24 hrs by MTT assay; assay type: toxicity; settings: 3t3-l1, 10 µM
C2C12 [8] = test: Activation of AMPK in mouse C2C12 cells assessed as increase in ACC phosphorylation at Ser79 residues at 1 mM after 1 hr by Western blot analysis; assay type: cell-based

In the case of `COCc1c(O)cc2c(c1OC)C(=O)c1ccccc1C2=O`, the Activity (Mus musculus [1]) was “Active”.

With `Cc1ccc2c(c1)C(=O)c1ccccc1C2=O` [TECTOQUINONE] the Activity (Mus musculus [1]) was “Active”, the Activity (C2C12 [2]) was “Active” and the Activity [3] was “Non-Toxic”. For the same compound, the Activity (Mus musculus [4]) was “Active”.

In the case of `Cc1cc2c(cc1O)C(=O)c1ccccc1C2=O`, the Activity (Mus musculus [1]) was “Active”.

In the case of `COc1c(O)c(O)cc2c1C(=O)c1ccccc1C2=O`, the Activity (Mus musculus [1]) was “Active”.

With `CCCCOCc1c(O)cc2c(c1O)C(=O)c1ccccc1C2=O` the Activity (Mus musculus [1]) was “Active”.

For `COc1c2c(cc3c1C(=O)c1ccccc1C3=O)OC(C)(C)OC2`, the Activity (Mus musculus [1]) was “Active”, the Activity (Mus musculus [5]) was “Non-Toxic” and the Activity (C2C12 [2]) was “Active”. The Activity [3] was “Non-Toxic”, the Activity (C2C12 [6]) was “Active” and the Activity (Mus musculus [7]) was “Non-Toxic”. The Activity (Mus musculus [4]) was “Active”.

For `COCc1c(OC)cc2c(c1OC)C(=O)c1ccccc1C2=O`, the Activity (Mus musculus [1]) was “Active”.

In the case of `NC(=O)c1ncn([C@@H]2O[C@H](CO)[C@@H](O)[C@H]2O)c1N`, the Activity (C2C12 [8]) was “Active”.

With `COc1cc2c(c(O)c1COCCC(C)C)C(=O)c1ccccc1C2=O` the Activity (Mus musculus [1]) was “Active”, the Activity (Mus musculus [5]) was “Non-Toxic” and the Activity (C2C12 [2]) was “Active”. For the same compound, the Activity [3] was “Non-Toxic”, the Activity (C2C12 [6]) was “Active” and the Activity (Mus musculus [7]) was “Non-Toxic”. For the same compound, the Activity (Mus musculus [4]) was “Active”.

With `COc1cc2c(cc1C)C(=O)c1ccccc1C2=O` the Activity (Mus musculus [1]) was “Active”.

For `COc1c(C)c(O)cc2c1C(=O)c1ccccc1C2=O`, the Activity (Mus musculus [1]) was “Active”.
